Measured values taken from article PMC2784108 (Bioorganic & medicinal chemistry, 2009).

Legend:
HDM2(11–119) = HDM2(11–119) (Homo sapiens, UniProt Q00987); experiment: Fluorescence anisotropy competition, HDM2 binding to fluorescein-labeled p53
GST-HDMX(1–188) = target: T1, GST-HDMX(1–188) (Homo sapiens, UniProt O15151); experiment: Fluorescence anisotropy competition, HDMX binding to fluorescein-labeled p53
T1 sequence (O15151 1-188): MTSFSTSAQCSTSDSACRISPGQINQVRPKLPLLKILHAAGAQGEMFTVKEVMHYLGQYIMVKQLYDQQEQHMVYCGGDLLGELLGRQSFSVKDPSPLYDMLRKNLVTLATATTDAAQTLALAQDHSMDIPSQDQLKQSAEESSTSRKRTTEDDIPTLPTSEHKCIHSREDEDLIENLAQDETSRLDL

[1] = compared with derivative with hydrogen at position Y (NAPA 5)
[2] = bromine at position Y replaced with methyl, compared with NAPA 9

Row | inhibition of HDM2-p53 binding (in words) (HDM2(11–119)) | inhibition of HDMX-p53 binding (in words) (GST-HDMX(1–188)) | Structure (SMILES) | also measured
1 | no inhibitory activity | no inhibitory activity | CC(C)CCC(=O)NC(CCC(=O)O)CN(CCC1CCC2(CCCCC2)CC1)C(CCCCN)CN(CCCCc1ccc(Br)cc1)[C@@H](CCC(=O)O)CN(CCCCCc1ccc(F)cc1)CCC(N)=O (stereo partly drawn) [NAPA 36] | –
2 | – | – | CC(C)CCCNC(=O)N(CC(CCC(=O)O)NC(N)=O)C(CCCCN)CN(C(=O)NCCc1ccc(Br)cc1)C(CCC(=O)O)CN(CCC(N)=O)C(=O)NCCCc1ccc(Br)cc1 (stereo not drawn) [NAPA 9] | inhibition of HDM2 binding with p53 relative to NAPA 5 (HDM2(11–119); [1]): two to four times better; inhibition of HDMX binding with p53 relative to NAPA 5 (GST-HDMX(1–188); [1]): two to four times better
3 | modest inhibition | modest inhibition | CC(C)CCCCNC(=O)N(CC(CCC(=O)O)NC(N)=O)C(CCCCN)CN(C(=O)NCCc1ccc(Br)cc1)C(CCC(=O)O)CN(CCC(N)=O)C(=O)NCCCc1ccc(Br)cc1 (stereo not drawn) [NAPA 13] | –
4 | negative impact on inhibitory activity | negative impact on inhibitory activity | CC(C)CCC(=O)N[C@@H](CCCC(=O)O)CN(C(=O)NCCCC1CCCCC1)[C@@H](CCCCN)CN(C(=O)NCCc1ccc(Br)cc1)[C@@H](CCCC(=O)O)CN(CCC(N)=O)C(=O)NCCCc1ccc(F)cc1 [NAPA 34] | –
5 | – | – | Cc1ccc(CCCNC(=O)N(CCC(N)=O)CC(CCC(=O)O)N(CC(CCCCN)N(CC(CCC(=O)O)NC(N)=O)C(=O)NCCCC(C)C)C(=O)NCCc2ccc(Br)cc2)cc1 (stereo not drawn) [NAPA 10] | activity against HDM2 relative to NAPA 9 (HDM2(11–119); [2]): decreased by three times; inhibitory activity towards HDMX relative to NAPA 9 (GST-HDMX(1–188); [2]): did not significantly affect
6 | eliminated all inhibitory activity | eliminated all inhibitory activity | NCCCC[C@@H](CN(C(=O)NCCCC1CCCCC1)[C@@H](CCCCN)CN(C(=O)NCCc1ccc(Br)cc1)[C@@H](CCCCN)CN(CCC(N)=O)C(=O)NCCCc1ccc(F)cc1)NC(N)=O [NAPA 35] | –
